Molecules are shown by their SMILES. Converted amounts (≈) assume the structure as drawn.

Common to all, as to assay type: functional
In assay [1] the test system is Staphylococcus aureus. In words: Antibacterial activity against Staphylococcus aureus Newman.
Assay [2] deals with Staphylococcus aureus. Briefly: Antibacterial activity against aminoglycosides/tetracycline-resistant Staphylococcus aureus NRS-1.
Assay [3] relates to Staphylococcus aureus. In words: Antibacterial activity against erythromycin-resistant Staphylococcus aureus NRS-70.
Assay [4] relates to Staphylococcus aureus. Briefly: Antibacterial activity against oxacillin/tetracycline-resistant Staphylococcus aureus NRS-100.
For assay [5], the system named is Staphylococcus aureus. In words: Antibacterial activity against gentamicin-resistant Staphylococcus aureus NRS-108.
Assay [6] deals with Staphylococcus aureus. In words: Antibacterial activity against linezolid-resistant Staphylococcus aureus NRS-271.

The term MIC denotes the least concentration at which growth counts as inhibited. Low values mean greater potency, high ones weaker potency. Turning to `C=CCON=C(c1cc2c(cc1C(C)C)CC[C@H]1[C@](C)(C(=O)O)CCC[C@]21C)c1ccccc1C(F)(F)F`, the MIC in the assay with Staphylococcus aureus [1] is 0.78 to 1.56 µg/mL (≈ 1.48 to 2.96 µM); against Staphylococcus aureus [2], 12.5 to 25 µg/mL (≈ 23.7 to 47.4 µM); with Staphylococcus aureus [3], 1.56 to 3.13 µg/mL (≈ 2.96 to 5.93 µM); against Staphylococcus aureus [4], 6.25 to 12.5 µg/mL (≈ 11.8 to 23.7 µM); against Staphylococcus aureus [5], 6.25 to 12.5 µg/mL (≈ 11.8 to 23.7 µM); with Staphylococcus aureus [6], over 50 µg/mL.

As to `CN[C@H](CC(C)C)C(=O)N[C@H]1C(=O)N[C@@H](CC(N)=O)C(=O)N[C@H]2C(=O)N[C@H]3C(=O)N[C@H](C(=O)N[C@H](C(=O)O)c4cc(O)cc(O)c4-c4cc3ccc4O)[C@H](O)c3ccc(c(Cl)c3)Oc3cc2cc(c3O[C@@H]2O[C@H](CO)[C@@H](O)[C@H](O)[C@H]2O[C@H]2C[C@](C)(N)[C@H](O)[C@H](C)O2)Oc2ccc(cc2Cl)[C@H]1O` [VANCOMYCIN], the MIC is 0.78 to 1.56 µg/mL (≈ 0.538 to 1.08 µM) against Staphylococcus aureus [1]; 1.56 to 3.13 µg/mL (≈ 1.08 to 2.16 µM) with Staphylococcus aureus [2]; 0.2 to 0.39 µg/mL (≈ 0.138 to 0.269 µM) against Staphylococcus aureus [3]; 0.39 to 0.78 µg/mL (≈ 0.269 to 0.538 µM) with Staphylococcus aureus [4]; 0.39 to 0.78 µg/mL (≈ 0.269 to 0.538 µM) in the assay with Staphylococcus aureus [5]; 0.39 to 0.78 µg/mL (≈ 0.269 to 0.538 µM) with Staphylococcus aureus [6].

Take `C#CCON=C(c1cc2c(cc1C(C)C)CC[C@H]1[C@](C)(C(=O)O)CCC[C@]21C)c1ccccc1C(F)(F)F`: the MIC against Staphylococcus aureus [1] is 1.56 to 3.13 µg/mL (≈ 2.97 to 5.95 µM); against Staphylococcus aureus [2], over 25 µg/mL; against Staphylococcus aureus [3] it was over 25 µg/mL; against Staphylococcus aureus [4], over 25 µg/mL; against Staphylococcus aureus [5], over 25 µg/mL; with Staphylococcus aureus [6], over 25 µg/mL.

For the molecule `CC(C)c1cc2c(cc1C(=NO)c1ccccc1C(F)(F)F)[C@@]1(C)CCC[C@@](C)(C(=O)O)[C@@H]1CC2`, the MIC against Staphylococcus aureus [1], with Staphylococcus aureus [2], against Staphylococcus aureus [3], with Staphylococcus aureus [4], against Staphylococcus aureus [5] and against Staphylococcus aureus [6] was 1.56 to 3.13 µg/mL (≈ 3.2 to 6.42 µM) throughout.

Take `CC(C)c1ccc2c(c1)CC[C@H]1[C@](C)(C(=O)O)CCC[C@]21C` [DEHYDROABIETIC ACID]: the MIC with Staphylococcus aureus [1] was 12.5 to 20 µg/mL (≈ 41.6 to 66.6 µM); against Staphylococcus aureus [2] it was 12.5 to 25 µg/mL (≈ 41.6 to 83.2 µM); with Staphylococcus aureus [3], 12.5 to 25 µg/mL (≈ 41.6 to 83.2 µM); with Staphylococcus aureus [4], 12.5 to 25 µg/mL (≈ 41.6 to 83.2 µM); in the assay with Staphylococcus aureus [5] it was 12.5 to 25 µg/mL (≈ 41.6 to 83.2 µM); against Staphylococcus aureus [6] it was 12.5 to 25 µg/mL (≈ 41.6 to 83.2 µM).

In the case of `CON=C(c1ccc(Cl)cc1Cl)c1cc2c(cc1C(C)C)CC[C@H]1[C@](C)(C(=O)O)CCC[C@]21C`, the MIC against Staphylococcus aureus [1] is 1.56 to 3.13 µg/mL (≈ 3.1 to 6.23 µM); in the assay with Staphylococcus aureus [2], over 25 µg/mL; against Staphylococcus aureus [3], 1.56 to 3.13 µg/mL (≈ 3.1 to 6.23 µM); with Staphylococcus aureus [4], over 25 µg/mL; in the assay with Staphylococcus aureus [5] it was over 25 µg/mL; in the assay with Staphylococcus aureus [6], over 25 µg/mL.

In the case of `CC(C)c1cc2c(cc1C(=NO)c1ccc(Cl)cc1Cl)[C@@]1(C)CCC[C@@](C)(C(=O)O)[C@@H]1CC2`, the MIC in the assay with Staphylococcus aureus [1] was 1.56 to 3.13 µg/mL (≈ 3.19 to 6.41 µM); with Staphylococcus aureus [2] it was 3.13 µg/mL (≈ 6.41 µM); against Staphylococcus aureus [3] it was 1.56 to 3.13 µg/mL (≈ 3.19 to 6.41 µM); against Staphylococcus aureus [4] it was 3.13 µg/mL (≈ 6.41 µM); against Staphylococcus aureus [5] it was 1.56 to 3.13 µg/mL (≈ 3.19 to 6.41 µM); against Staphylococcus aureus [6] it was 1.56 to 3.13 µg/mL (≈ 3.19 to 6.41 µM).

In the case of `C#CCON=C(c1cccc(C(F)(F)F)c1)c1cc2c(cc1C(C)C)CC[C@H]1[C@](C)(C(=O)O)CCC[C@]21C`, the MIC in the assay with Staphylococcus aureus [1] is 1.56 to 3.13 µg/mL (≈ 2.97 to 5.95 µM); against Staphylococcus aureus [2], over 25 µg/mL; against Staphylococcus aureus [3], over 25 µg/mL; with Staphylococcus aureus [4] it was over 25 µg/mL; in the assay with Staphylococcus aureus [5] it was over 25 µg/mL; against Staphylococcus aureus [6], over 25 µg/mL.

Turning to `C#CCON=C(c1ccccc1)c1cc2c(cc1C(C)C)CC[C@H]1[C@](C)(C(=O)O)CCC[C@]21C`, the MIC was 2.5 µg/mL (≈ 5.46 µM) against Staphylococcus aureus [1]; 6.25 to 12.5 µg/mL (≈ 13.7 to 27.3 µM) in the assay with Staphylococcus aureus [2]; 1.56 to 2.5 µg/mL (≈ 3.41 to 5.46 µM) against Staphylococcus aureus [3]; 3.13 µg/mL (≈ 6.84 µM) in the assay with Staphylococcus aureus [4]; 3.13 to 6.25 µg/mL (≈ 6.84 to 13.7 µM) against Staphylococcus aureus [5]; 3.13 to 6.25 µg/mL (≈ 6.84 to 13.7 µM) in the assay on Staphylococcus aureus [6].

Turning to `C#CCON=C(c1ccc(Cl)cc1Cl)c1cc2c(cc1C(C)C)CC[C@H]1[C@](C)(C(=O)O)CCC[C@]21C`, the MIC was 1.56 to 3.13 µg/mL (≈ 2.96 to 5.94 µM) against Staphylococcus aureus [1]; over 25 µg/mL in the assay with Staphylococcus aureus [2]; 1.56 to 3.13 µg/mL (≈ 2.96 to 5.94 µM) against Staphylococcus aureus [3]; 12.5 to 25 µg/mL (≈ 23.7 to 47.5 µM) with Staphylococcus aureus [4]; 12.5 µg/mL (≈ 23.7 µM) against Staphylococcus aureus [5]; 12.5 to 25 µg/mL (≈ 23.7 to 47.5 µM) in the assay with Staphylococcus aureus [6].

For the origin of these results see ChEMBL document CHEMBL3864157, “The synthesis and antistaphylococcal activity of dehydroabietic acid derivatives: Modifications at C-12” (2016).
